SMILES strings stand for the structures. Calls of active or inactive are those of the source. The calls are words filed in the database; no cut-off is given here.

The source of these data is ChEMBL document CHEMBL3392989 (Bioorg Med Chem Lett, 2015).

In data set [1] the test system is HT-22. As to the kind of experiment: Cytotoxicity against mouse HT22 cells assessed as reduction in cell viability at 100 uM after 24 hrs by MTT assay. Format: cell-based. As to conditions: ht-22, 24 h.
Data set [2] relates to HT-22. Nature of the data set: Cytoprotective activity in mouse HT22 cells assessed as reduction in glutamate-induced cytotoxicity at 10 uM pre-incubated for 30 mins before incubation with glutamate for 24 hrs by MTT assay. Format: functional, cell-based.
Data set [3] deals with Amyloid-beta precursor protein (Homo sapiens) (UniProt P05067). Nature of the data set: Inhibition of Amyloid beta (1 to 42) (unknown origin) self aggregation at 50 uM pre-incubated for 24 hrs by Thioflavin T-based fluorometric assay.
Amyloid-beta precursor protein (Homo sapiens), sequence (P05067 whole entry): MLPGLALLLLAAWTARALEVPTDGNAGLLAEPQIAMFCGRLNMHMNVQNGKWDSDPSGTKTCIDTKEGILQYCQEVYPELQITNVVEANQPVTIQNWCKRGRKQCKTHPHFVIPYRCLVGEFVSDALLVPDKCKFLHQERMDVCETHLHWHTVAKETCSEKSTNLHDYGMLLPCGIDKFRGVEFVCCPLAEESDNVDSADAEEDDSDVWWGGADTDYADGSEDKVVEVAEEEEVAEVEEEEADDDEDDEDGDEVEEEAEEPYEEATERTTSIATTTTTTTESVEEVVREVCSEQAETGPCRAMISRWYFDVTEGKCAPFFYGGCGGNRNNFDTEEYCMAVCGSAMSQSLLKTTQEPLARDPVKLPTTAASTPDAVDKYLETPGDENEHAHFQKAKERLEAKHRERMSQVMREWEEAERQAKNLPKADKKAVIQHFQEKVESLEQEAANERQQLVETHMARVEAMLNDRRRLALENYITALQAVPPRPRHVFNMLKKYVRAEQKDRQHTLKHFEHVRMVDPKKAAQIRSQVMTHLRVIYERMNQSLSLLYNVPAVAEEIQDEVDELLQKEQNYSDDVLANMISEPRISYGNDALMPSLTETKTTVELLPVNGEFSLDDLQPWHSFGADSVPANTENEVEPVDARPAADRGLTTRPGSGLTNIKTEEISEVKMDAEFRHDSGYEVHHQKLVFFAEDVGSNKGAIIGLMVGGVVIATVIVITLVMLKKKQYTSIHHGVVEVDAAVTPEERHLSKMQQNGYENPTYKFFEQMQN
Data set [4] can be described thus: Metal chelating activity assessed as copper chelation activity by measuring barhochromic shift at 40 uM using CuCl2 UV-vis spectroscopy. It counts as physicochemical.
The target in data set [5] is Amyloid-beta precursor protein (Homo sapiens) (UniProt P05067). Nature of the data set: Inhibition of Amyloid beta (1 to 42) (unknown origin) self aggregation at 5 uM pre-incubated for 24 hrs by Thioflavin T-based fluorometric assay.
For the next data set, the target named is Cholinesterase (Equus caballus, UniProt P81908). Nature of the data set: Inhibition of horse serum BuChE pre-incubated for 20 mins before […] substrate addition by Ellman's assay.
Cholinesterase, sequence (P81908 whole entry, the tested form may be a part): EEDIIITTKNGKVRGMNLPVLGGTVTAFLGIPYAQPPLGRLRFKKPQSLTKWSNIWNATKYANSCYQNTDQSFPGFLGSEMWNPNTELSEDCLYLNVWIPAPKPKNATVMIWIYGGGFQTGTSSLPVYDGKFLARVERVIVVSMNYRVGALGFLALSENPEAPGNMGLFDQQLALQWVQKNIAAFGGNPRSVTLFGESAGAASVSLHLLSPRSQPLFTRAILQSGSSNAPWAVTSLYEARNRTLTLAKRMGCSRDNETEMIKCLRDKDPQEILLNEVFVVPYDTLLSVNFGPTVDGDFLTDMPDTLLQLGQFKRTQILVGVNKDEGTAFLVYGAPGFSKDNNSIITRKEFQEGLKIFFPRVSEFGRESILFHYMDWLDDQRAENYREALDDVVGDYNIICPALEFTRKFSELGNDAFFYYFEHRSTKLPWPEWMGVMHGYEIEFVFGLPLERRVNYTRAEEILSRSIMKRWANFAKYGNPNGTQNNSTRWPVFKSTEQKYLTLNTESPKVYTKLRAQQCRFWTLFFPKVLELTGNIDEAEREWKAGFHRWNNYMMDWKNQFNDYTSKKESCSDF
For data set [6], the target named is Beta-secretase 1 (Homo sapiens) (UniProt P56817). As to the kind of experiment: Inhibition of BACE1 (unknown origin) at 10 uM using ([Asn670, Lue671]-Amyloid beta/A4 precursor protein 770 fragment 667-676-(2,4dinitrophenyl) Lys-Arg-Arg amide trifluoroacetate salt substrate incubated for 2 hrs by FRET assay.
Beta-secretase 1 (Homo sapiens), sequence (P56817 whole entry, the tested form may be a part): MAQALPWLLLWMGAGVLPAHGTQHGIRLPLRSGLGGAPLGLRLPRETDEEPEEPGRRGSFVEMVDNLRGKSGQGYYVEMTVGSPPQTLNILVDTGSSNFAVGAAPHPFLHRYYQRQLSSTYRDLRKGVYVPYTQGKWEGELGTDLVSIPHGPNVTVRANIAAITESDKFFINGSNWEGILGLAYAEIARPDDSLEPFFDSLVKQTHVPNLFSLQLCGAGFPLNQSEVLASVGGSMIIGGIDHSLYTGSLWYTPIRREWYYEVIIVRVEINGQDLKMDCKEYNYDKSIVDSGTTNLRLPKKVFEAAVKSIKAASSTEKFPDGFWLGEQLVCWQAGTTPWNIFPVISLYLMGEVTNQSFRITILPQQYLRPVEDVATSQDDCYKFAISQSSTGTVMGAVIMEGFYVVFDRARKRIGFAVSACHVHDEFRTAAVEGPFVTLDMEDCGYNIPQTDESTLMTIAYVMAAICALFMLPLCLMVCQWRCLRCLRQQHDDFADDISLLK
The next data set deals with Acetylcholinesterase (Electrophorus electricus, UniProt O42275).
Acetylcholinesterase, sequence (O42275 whole entry): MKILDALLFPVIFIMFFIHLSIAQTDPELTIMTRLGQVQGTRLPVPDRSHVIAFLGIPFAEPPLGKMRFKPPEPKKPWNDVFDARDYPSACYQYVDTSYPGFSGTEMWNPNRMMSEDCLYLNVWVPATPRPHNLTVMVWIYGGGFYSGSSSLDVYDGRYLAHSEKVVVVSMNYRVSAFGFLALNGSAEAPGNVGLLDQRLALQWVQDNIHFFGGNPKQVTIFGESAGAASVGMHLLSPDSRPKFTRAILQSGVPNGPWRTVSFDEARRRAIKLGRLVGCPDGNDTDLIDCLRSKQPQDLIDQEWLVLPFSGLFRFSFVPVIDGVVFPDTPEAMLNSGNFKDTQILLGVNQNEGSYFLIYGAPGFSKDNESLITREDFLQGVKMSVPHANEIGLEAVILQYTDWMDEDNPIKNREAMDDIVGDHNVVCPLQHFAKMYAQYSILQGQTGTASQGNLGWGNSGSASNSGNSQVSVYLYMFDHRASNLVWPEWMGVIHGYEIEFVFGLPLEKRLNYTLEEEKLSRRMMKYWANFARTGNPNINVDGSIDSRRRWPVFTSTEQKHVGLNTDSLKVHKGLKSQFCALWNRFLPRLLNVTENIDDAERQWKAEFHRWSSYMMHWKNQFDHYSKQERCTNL
Data set [7] has as its system HT-22. As to the kind of experiment: Cytoprotective activity in mouse HT22 cells assessed as reduction in glutamate-induced cytotoxicity at 0.3 to 10 uM pre-incubated for 30 mins before incubation with glutamate for 24 hrs by MTT assay. It counts as functional, cell-based.
Data set [8] deals with HT-22. Nature of the data set: Cytotoxicity against mouse HT22 cells assessed as reduction in cell viability at 10 to 100 uM after 24 hrs by MTT assay. It counts as cell-based. As to conditions: ht-22, 24 h.
In data set [9] the test system is HT-22. Nature of the data set: Cytotoxicity against mouse HT22 cells assessed as reduction in cell viability at 30 to 100 uM after 24 hrs by MTT assay. Format: cell-based. As to conditions: ht-22, 24 h.
In data set [10] the test system is HT-22. As to the kind of experiment: Cytotoxicity against mouse HT22 cells assessed as reduction in cell viability at 10 uM after 24 hrs by MTT assay. It counts as cell-based. Particulars: ht-22, 24 h.
Data set [11] concerns HT-22. As to the kind of experiment: Cytoprotective activity in mouse HT22 cells assessed as reduction in glutamate-induced cytotoxicity at 3 uM pre-incubated for 30 mins before incubation with glutamate for 24 hrs by MTT assay. It counts as functional, cell-based.

Description for Acetylcholinesterase: Inhibition of electric eel AChE pre-incubated for 20 mins before acetylcholine iodide substrate addition by Ellman's assay

For `O=C(/C=C/c1ccc(O)c(O)c1)NCC(O)CNc1c2c(nc3cc(Cl)ccc13)CCCC2` (stereo not given), the Activity entry was “Toxic” in the data set on HT-22 [1] and “Active” in data set [4]. In addition, the outcome in the data set with HT-22 [2] was Active. In addition, the values for the inhibition in data set [3], in data set [5] and in [6] were 53.2%, 9.2% and 13.1%, respectively. Moreover, the IC50 came to 360 nM on Cholinesterase and 150 nM at Acetylcholinesterase.
As to `COc1cc(/C=C/C(=O)NCC(O)CNc2c3c(nc4cc(Cl)ccc24)CCCC3)ccc1O` (stereo not given), the Activity result in the data set with HT-22 [1] is recorded as “Toxic”. Besides, the inhibition in data set [3] worked out at 48.9%; in data set [5], 13.5%; in [6], 2.57%. For the same molecule, the result with HT-22 [7] was inactive. Further, the figures for the IC50 against Cholinesterase and against Acetylcholinesterase were 710 nM and 20 nM, respectively.
Turning to `COc1cc(/C=C/C(=O)NCC(O)CNc2c3c(nc4ccccc24)CCCC3)ccc1O` (stereo not given), the inhibition was found to be 46.3% in data set [3], 8.4% in data set [5] and 15% in [6]. Also, the result in the data set on HT-22 [7] was inactive. For the same molecule, the IC50 was 310 nM at Cholinesterase and 30 nM on Acetylcholinesterase. Also, the Activity entry with HT-22 [8] is listed as “Non-toxic”.
As for `O=C(CCCCC1CCSS1)NCC(O)CNc1c2c(nc3cc(Cl)ccc13)CCCC2` (stereo not given), the Activity entry in the data set with HT-22 [9] and with HT-22 [10] was “Toxic” throughout. Besides, the result with HT-22 [11] was Active. Moreover, the IC50 against Cholinesterase amounted to 1030 nM; against Acetylcholinesterase, 40 nM. Besides, in [6], the inhibition was determined as 46.8%.
With `O=C(/C=C/c1ccc(O)c(O)c1)NCC(O)CNc1c2c(nc3ccccc13)CCCC2` (stereo not given), the inhibition in [3] was 49.8%; in data set [5], 12.8%; in data set [6] it was 10.5%. In addition, the outcome in the data set on HT-22 [7] was inactive. Also, the results for the IC50 at Cholinesterase and on Acetylcholinesterase were 1010 nM and 700 nM, respectively. In addition, the Activity entry in the data set with HT-22 [8] is “Non-toxic”.
Regarding `O=C(CCCCC1CCSS1)NCC(O)CNc1c2c(nc3ccccc13)CCCC2` (stereo not given), the Activity entry in the data set with HT-22 [9] is “Toxic”. In the data set on HT-22 [11], the outcome was Active. In addition, the figures for the IC50 on Cholinesterase and on Acetylcholinesterase were 1180 nM and 100 nM, respectively. In addition, the inhibition in data set [6] was 24.8%.
